Test system: strains of Enterobacteriaceae producing various carbapenemases (class A, D and B; 104 strains)
Assay: Antibiotics potentiation by Compound 27 (MIC; meropenem, doripenem, ertapenem, cefepime)
Format: cell-based
Conditions: + 27 = with Compound 27 at fixed 4 μg/ml

COc1ccc2c(c1C(=O)O)OB(O)C(Sc1nnc(N)s1)C2 (centres unmarked) [C + 27]
MIC (strain CF1012 Citrobacter freundii (KPC-2)): X (MIC of less than 1 μg/mL)
MIC (strain CF1021 Citrobacter freundii (CMY-type; VIM-1)): X (MIC of less than 1 μg/mL)
MIC (strain CF1022 Citrobacter freundii (SHV-12(2be), TEM-OSBL(2b); IMP-8)): X (MIC of less than 1 μg/mL)
MIC (strain CF1023 Citrobacter freundii (SHV-12(2be), TEM-OSBL(2b); CTX-M-3; CMY-34; NDM-1)): X (MIC of less than 1 μg/mL)
MIC (strain CL1080 Enterobacter cloacae (IMP-1)): Y (MIC of 1 μg/mL to 10 μg/mL)
MIC (strain EA1019 Enterobacter aerogenes (SHV-5, VIM-1)): Y (MIC of 1 μg/mL to 10 μg/mL)
MIC (strain EC1007 Escherichia coli (KPC-3)): X (MIC of less than 1 μg/mL)
MIC (strain EC1061 Escherichia coli (NDM-1, CMY-6)): X (MIC of less than 1 μg/mL)
MIC (strain EC1062 Escherichia coli (OXA-48, CTX-M-15)): X (MIC of less than 1 μg/mL)
MIC (strain EC1064 Escherichia coli (NDM-1, CMY-6, CTX-M-15)): Z (MIC of greater than 10 μg/mL)
MIC (strain EC1065 Escherichia coli (IMP-1)): X (MIC of less than 1 μg/mL)
MIC (strain EC1068 Escherichia coli (VIM-1)): Y (MIC of 1 μg/mL to 10 μg/mL)
MIC (strain EC1069 Escherichia coli (CTX-M-27; NDM-1)): X (MIC of less than 1 μg/mL)
MIC (strain EC1070 Escherichia coli (TEM-OSBL(2b); CMY-42; NDM-5)): X (MIC of less than 1 μg/mL)
MIC (strain EC1072 Escherichia coli (CTX-M-3; NDM-1)): Y (MIC of 1 μg/mL to 10 μg/mL)
MIC (strain ECL1004 Enterobacter cloacae (NMC-A)): X (MIC of less than 1 μg/mL)
MIC (strain ECL1026 Enterobacter cloacae (KPC-2, TEM-1)): X (MIC of less than 1 μg/mL)
MIC (strain ECL1036 Enterobacter cloacae (KPC-3, TEM-1)): X (MIC of less than 1 μg/mL)
MIC (strain ECL1045 Enterobacter cloacae (VIM-1)): Y (MIC of 1 μg/mL to 10 μg/mL)
MIC (strain ECL1055 Enterobacter cloacae (KPC-3, TEM)): X (MIC of less than 1 μg/mL)
MIC (strain ECL1057 Enterobacter cloacae (NDM-1, TEM-1, CTX-M-15)): Z (MIC of greater than 10 μg/mL)
MIC (strain ECL1058 Enterobacter cloacae (KPC-3, SHV-11, TEM-1)): X (MIC of less than 1 μg/mL)
MIC (strain ECL1059 Enterobacter cloacae (KPC-3, SHV-12, TEM-1)): X (MIC of less than 1 μg/mL)
MIC (strain ECL1061 Enterobacter cloacae (KPC-3, Hyper AmpC expression)): Y (MIC of 1 μg/mL to 10 μg/mL)
MIC (strain ECL1082 Enterobacter cloacae (VIM-1)): Y (MIC of 1 μg/mL to 10 μg/mL)
MIC (strain ECL1084 Enterobacter cloacae (CTX-M-15; ACT-16; NDM-1)): X (MIC of less than 1 μg/mL)
MIC (strain ECL1085 Enterobacter cloacae (SHV-31(2be), TEM-1(2b); CTX-M-15; NDM-1)): X (MIC of less than 1 μg/mL)
MIC (strain ECL1086 Enterobacter cloacae (VIM-31, OXA-48(c))): Y (MIC of 1 μg/mL to 10 μg/mL)
MIC (strain ECL1087 Enterobacter cloacae (VIM-1)): Y (MIC of 1 μg/mL to 10 μg/mL)
MIC (strain ECL1088 Enterobacter cloacae (TEM-1(2b); CTX-M-14; ACT-type; VIM-1)): Y (MIC of 1 μg/mL to 10 μg/mL)
MIC (strain ECL1089 Enterobacter cloacae (ACT-type; IMP-1)): Z (MIC of greater than 10 μg/mL)
MIC (strain ECL1090 Enterobacter cloacae (TEM-1(2b); CTX-M-22; ACT-type; IMP-8)): Y (MIC of 1 μg/mL to 10 μg/mL)
MIC (strain ECL1091 Enterobacter cloacae (VIM-1)): Y (MIC of 1 μg/mL to 10 μg/mL)
MIC (strain ECL1092 Enterobacter cloacae (TEM-OSBL(2b); ACT-32; VIM-1)): X (MIC of less than 1 μg/mL)
MIC (strain ECL1093 Enterobacter cloacae (TEM-OSBL(2b); ACT-32; VIM-1)): X (MIC of less than 1 μg/mL)
MIC (strain ECL1094 Enterobacter cloacae (VIM-1)): Y (MIC of 1 μg/mL to 10 μg/mL)
MIC (strain ECL1096 Enterobacter cloacae (CMY-4, VIM-4, OXA-48(c))): X (MIC of less than 1 μg/mL)
MIC (strain ECL1097 Enterobacter cloacae (SHV-31(2be), TEM-OSBL(2b); CTX-M-15; ACT-31; NDM-1)): X (MIC of less than 1 μg/mL)
MIC (strain ECL1098 Enterobacter cloacae (TEM-OSBL(2b); DHA-1; ACT-16; NDM-1)): X (MIC of less than 1 μg/mL)
MIC (strain KP1001 Klebsiella pneumoniae (KPC TEM SHV)): Y (MIC of 1 μg/mL to 10 μg/mL)
MIC (strain KP1002 Klebsiella pneumoniae (KPC TEM SHV)): X (MIC of less than 1 μg/mL)
MIC (strain KP1003 Klebsiella pneumoniae (KPC TEM SHV)): X (MIC of less than 1 μg/mL)
MIC (strain KP1004 Klebsiella pneumoniae (KPC-2, TEM-1, SHV-11)): X (MIC of less than 1 μg/mL)
MIC (strain KP1008 Klebsiella pneumoniae (KPC-2)): X (MIC of less than 1 μg/mL)
MIC (strain KP1014 Klebsiella pneumoniae (VIM-1, TEM, SHV)): X (MIC of less than 1 μg/mL)
MIC (strain KP1054 Klebsiella pneumoniae (VIM-1, SHV-11)): X (MIC of less than 1 μg/mL)
MIC (strain KP1059 Klebsiella pneumoniae (VIM-1, SHV-11)): Y (MIC of 1 μg/mL to 10 μg/mL)
MIC (strain KP1061 Klebsiella pneumoniae (KPC-3, SHV-11, TEM-1)): X (MIC of less than 1 μg/mL)
MIC (strain KP1064 Klebsiella pneumoniae (KPC-2, SHV-11, TEM-1)): Y (MIC of 1 μg/mL to 10 μg/mL)
MIC (strain KP1065 Klebsiella pneumoniae (VIM-1, SHV-11)): X (MIC of less than 1 μg/mL)
MIC (strain KP1070 Klebsiella pneumoniae (KPC-2, SHV-11, TEM-1)): X (MIC of less than 1 μg/mL)
MIC (strain KP1074 Klebsiella pneumoniae (KPC-3, SHV-11, TEM)): Z (MIC of greater than 10 μg/mL)
MIC (strain KP1081 Klebsiella pneumoniae (NDM-1, TEM-1, SHV-11, CMY-6, CTX-M-15)): Y (MIC of 1 μg/mL to 10 μg/mL)
MIC (strain KP1082 Klebsiella pneumoniae (KPC-2, SHV-1)): X (MIC of less than 1 μg/mL)
MIC (strain KP1083 Klebsiella pneumoniae (KPC-3, SHV-1, TEM-1)): X (MIC of less than 1 μg/mL)
MIC (strain KP1084 Klebsiella pneumoniae (KPC-3, SHV-11, TEM-1)): Y (MIC of 1 μg/mL to 10 μg/mL)
MIC (strain KP1086 Klebsiella pneumoniae (OXA-48, CTX-M-15, TEM, SHV)): Z (MIC of greater than 10 μg/mL)
MIC (strain KP1087 Klebsiella pneumoniae (KPC-2, CTX-M-15, SHV-11, TEM-1)): Y (MIC of 1 μg/mL to 10 μg/mL)
MIC (strain KP1088 Klebsiella pneumoniae (KPC-3, SHV-11, TEM-1)): X (MIC of less than 1 μg/mL)
MIC (strain KP1089 Klebsiella pneumonias (OXA-181, CTX-M-15, TEM, SHV)): Y (MIC of 1 μg/mL to 10 μg/mL)
MIC (strain KP1095 Klebsiella pneumoniae (KPC-2 TEM-1 SHV-1)): X (MIC of less than 1 μg/mL)
MIC (strain KP1096 Klebsiella pneumoniae (KPC-2 TEM-181 SHV-11)): X (MIC of less than 1 μg/mL)
MIC (strain KP1097 Klebsiella pneumonias (IMP-1)): X (MIC of less than 1 μg/mL)
MIC (strain KP1098 Klebsiella pneumoniae (IMP-26)): Y (MIC of 1 μg/mL to 10 μg/mL)
MIC (strain KP1104 Klebsiella pneumoniae (KPC TEM)): X (MIC of less than 1 μg/mL)
MIC (strain KP1105 Klebsiella pneumoniae (KPC TEM SHV)): X (MIC of less than 1 μg/mL)
MIC (strain KP1159 Klebsiella pneumoniae (SHV-1(2b); CTX-M-15; IMP-4)): X (MIC of less than 1 μg/mL)
MIC (strain KP1160 Klebsiella pneumoniae (SHV-28(2be); CTX-M-15; IMP-26)): X (MIC of less than 1 μg/mL)
MIC (strain KP1161 Klebsiella pneumoniae (NDM-1)): X (MIC of less than 1 μg/mL)
MIC (strain KP1164 Klebsiella pneumoniae (SHV-12(2be); VIM-1)): X (MIC of less than 1 μg/mL)
MIC (strain KP1165 Klebsiella pneumoniae (SHV-11(2b); CTX-M-15; VIM-27)): Z (MIC of greater than 10 μg/mL)
MIC (strain KP1166 Klebsiella pneumoniae (SHV-5(2be); VIM-26)): Z (MIC of greater than 10 μg/mL)
MIC (strain KP1167 Klebsiella pneumoniae (SHV-12(2be); VIM-1)): X (MIC of less than 1 μg/mL)
MIC (strain KP1169 Klebsiella pneumoniae (SHV-11(2b); VIM-1)): X (MIC of less than 1 μg/mL)
MIC (strain KP1170 Klebsiella pneumoniae (SHV-11(2b); CTX-M-15; NDM-1)): X (MIC of less than 1 μg/mL)
MIC (strain KP1172 Klebsiella pneumoniae (SHV-31(2be); DHA-1; VIM-1)): X (MIC of less than 1 μg/mL)
MIC (strain KP1173 Klebsiella pneumoniae (TEM-33(2br); CTX-M-15; IMP-1)): X (MIC of less than 1 μg/mL)
MIC (strain KP1174 Klebsiella pneumoniae (CTX-M-14; IMP-1)): X (MIC of less than 1 μg/mL)
MIC (strain KP1175 Klebsiella pneumoniae (SHV-OSBL(2b); VIM-1)): X (MIC of less than 1 μg/mL)
MIC (strain KP1177 Klebsiella pneumoniae (SHV-OSBL(2b), TEM-OSBL(2b); CTX-M-15; NDM-1)): X (MIC of less than 1 μg/mL)
MIC (strain KP1178 Klebsiella pneumoniae (SHV-OSBL(2b;) TEM-OSBL(2b); CTX-M-15; NDM-1)): X (MIC of less than 1 μg/mL)
MIC (strain KP1179 Klebsiella pneumoniae (SHV-12(2be), TEM-OSBL(2b); CTX-M-15; NDM-7)): X (MIC of less than 1 μg/mL)
MIC (strain KP1180 Klebsiella pneumoniae (SHV-OSBL(2b), TEM-OSBL(2b); CTX-M-15; DHA-1; IMP-26)): X (MIC of less than 1 μg/mL)
MIC (strain KP1181 Klebsiella pneumoniae (SHV-OSBL(2b); CTX-M-15; IMP-26)): X (MIC of less than 1 μg/mL)
MIC (strain KP1183 Klebsiella pneumoniae (SHV-OSBL(2b), TEM-OSBL(2b); CTX-M-15; NDM-1)): X (MIC of less than 1 μg/mL)
MIC (strain KP1184 Klebsiella pneumoniae (SHV-OSBL(2b); IMP-1)): X (MIC of less than 1 μg/mL)
MIC (strain KP1185 Klebsiella pneumoniae (SHV-OSBL(2b), TEM-OSBL(2b); IMP-4)): Y (MIC of 1 μg/mL to 10 μg/mL)
MIC (strain KP1186 Klebsiella pneumoniae (CTX-M-15; NDM-1)): Y (MIC of 1 μg/mL to 10 μg/mL)
MIC (strain KP1187 Klebsiella pneumoniae (SHV-55(2be), TEM-OSBL(2b); CTX-M-15; NDM-1)): X (MIC of less than 1 μg/mL)
MIC (strain KP1188 Klebsiella pneumoniae (SHV-OSBL(2b); CTX-M-15; NDM-1)): Y (MIC of 1 μg/mL to 10 μg/mL)
MIC (strain KP1189 Klebsiella pneumoniae (TEM-OSBL(2b); CTX-M-15; CTX-M-27; NDM-1)): X (MIC of less than 1 μg/mL)
MIC (strain KPM1123 Klebsiella pneumoniae (KPC-2 TEM SHV)): X (MIC of less than 1 μg/mL)
MIC (strain KPM1202 Klebsiella pneumoniae (KPC SHV TEM)): X (MIC of less than 1 μg/mL)
MIC (strain KPM1203 Klebsiella pneumoniae (KPC SHV TEM)): X (MIC of less than 1 μg/mL)
MIC (strain KPM1344 Klebsiella pneumoniae (VIM-1)): X (MIC of less than 1 μg/mL)
MIC (strain KPM1345 Klebsiella pneumoniae (VIM-1 SHV)): X (MIC of less than 1 μg/mL)
MIC (strain KPM1347 Klebsiella pneumoniae (NDM-1 SHV CTX-M-15)): X (MIC of less than 1 μg/mL)
MIC (strain KX1017 Klebsiella oxytoca (KPC-2, OXA-2, SHV-30)): X (MIC of less than 1 μg/mL)
MIC (strain KX1018 Klebsiella oxytoca (KPC-2, SHV-40, OXY-1)): X (MIC of less than 1 μg/mL)
MIC (strain KX1019 Klebsiella oxytoca (KPC-2, OXA-2)): X (MIC of less than 1 μg/mL)
MIC (strain PM1024 Proteus mirabilis (TEM-1(2b); CMY-16; VIM-1)): X (MIC of less than 1 μg/mL)
MIC (strain PM1026 Proteus mirabilis (DHA-1; IMP-26)): X (MIC of less than 1 μg/mL)
MIC (strain PM1027 Proteus mirabilis (VIM-5)): X (MIC of less than 1 μg/mL)
MIC (strain SM1023 Serratia marcescens (VIM-4)): Y (MIC of 1 μg/mL to 10 μg/mL)
